According to BindingDB's records for doi:10.1016/j.bmcl.2009.11.061 (Glaxosmithkline, 2010):

Test: Inhibition of GSK3beta phosphorylation in human BT474 cells

| IC50 | SMILES |
| --- | --- |
| > 10000 nM | Cc1n[nH]c2ncc(-c3cc(OC[C@@H](N)Cc4c[nH]c5ccccc45)c(C#N)nc3-c3ccoc3)nc12 [(S)-3-(2-amino-3-(1H-indol-3-yl)propoxy)-6-(furan-3-yl)-5-(3-methyl-1H-pyrazolo[4,3-b]pyrazin-5-yl)picolinonitrile] |
| 210 nM | Cc1occc1-c1ncc(OC[C@@H](N)Cc2c[nH]c3ccccc23)cc1-c1cnc2[nH]nc(C)c2n1 [(2S)-1-(1H-indol-3-yl)-3-(5-(3-methyl-1H-pyrazolo[4,3-b]pyrazin-5-yl)-6-(2-methylfuran-3-yl)pyridin-3-yloxy)propan-2-amine] |
| 280 nM | Cc1occc1-c1nc(N)c(OC[C@@H](N)Cc2ccccc2)cc1-c1cnc2[nH]nc(C)c2n1 [3-((S)-2-amino-3-phenylpropoxy)-5-(3-methyl-1H-pyrazolo[4,3-b]pyrazin-5-yl)-6-(2-methylfuran-3-yl)pyridin-2-amine] |
| 680 nM | Cc1occc1-c1nc(N)c(OC[C@@H](N)Cc2c[nH]c3ccccc23)cc1-c1cc2c(C)n[nH]c2cn1 [3-((S)-2-amino-3-(1H-indol-3-yl)propoxy)-5-(3-methyl-1H-pyrazolo[3,4-c]pyridin-5-yl)-6-(2-methylfuran-3-yl)pyridin-2-amine] |
| 220 nM | Cc1occc1-c1nc(N)c(OC[C@@H](N)Cc2c[nH]c3ccccc23)cc1-c1ccc2[nH]nc(C)c2c1 [3-((S)-2-amino-3-(1H-indol-3-yl)propoxy)-5-(3-methyl-1H-indazol-5-yl)-6-(2-methylfuran-3-yl)pyridin-2-amine] |
| > 10000 nM | CCNc1nc(-c2ccoc2)c(-c2cnc3[nH]nc(C)c3n2)cc1OC[C@@H](N)Cc1ccccc1 [(S)-3-(2-amino-3-phenylpropoxy)-N-ethyl-6-(furan-3-yl)-5-(3-methyl-1H-pyrazolo[4,3-b]pyrazin-5-yl)pyridin-2-amine] |
| 560 nM | Cc1occc1-c1nc(N)c(OC[C@@H](N)Cc2c[nH]c3ccccc23)cc1-c1cnc2[nH]nc(C)c2n1 [3-((S)-2-amino-3-(1H-indol-3-yl)propoxy)-5-(3-methyl-1H-pyrazolo[4,3-b]pyrazin-5-yl)-6-(2-methylfuran-3-yl)pyridin-2-amine] |
| 300 nM | Cc1occc1-c1nc(N)c(OC[C@@H](N)Cc2c(Cl)[nH]c3ccccc23)cc1-c1cnc2[nH]nc(C)c2n1 [3-((S)-2-amino-3-(2-chloro-1H-indol-3-yl)propoxy)-5-(3-methyl-1H-pyrazolo[4,3-b]pyrazin-5-yl)-6-(2-methylfuran-3-yl)pyridin-2-amine] |
| > 30000 nM | Cc1occc1-c1nc(N)c(OC[C@@H](N)Cc2c(C(N)=O)[nH]c3ccccc23)cc1-c1cnc2[nH]nc(C)c2n1 [3-((2S)-2-amino-3-(2-amino-5-(3-methyl-1H-pyrazolo[4,3-b]pyrazin-5-yl)-6-(2-methylfuran-3-yl)pyridin-3-yloxy)propyl)-1H-indole-2-carboxamide] |
| > 30000 nM | Cc1occc1-c1nc(N)c(OC[C@@H](N)Cc2c(C#N)[nH]c3ccccc23)cc1-c1cnc2[nH]nc(C)c2n1 [3-((2S)-2-amino-3-(2-amino-5-(3-methyl-1H-pyrazolo[4,3-b]pyrazin-5-yl)-6-(2-methylfuran-3-yl)pyridin-3-yloxy)propyl)-1H-indole-2-carbonitrile] |
| 280 nM | Cc1nc(-c2ccoc2)c(-c2cnc3[nH]nc(C)c3n2)cc1OC[C@@H](N)Cc1c[nH]c2ccccc12 [(S)-1-(6-(furan-3-yl)-2-methyl-5-(3-methyl-1H-pyrazolo[4,3-b]pyrazin-5-yl)pyridin-3-yloxy)-3-(1H-indol-3-yl)propan-2-amine] |
